Our source for the relative viability values is the supplement of paper PMC10307832.

Holding throughout (assay): relative viability (nuclei count vs DMSO), 5 days (fraction); higher = more cells survive
Compound in the test “Ponatinib + Olaparib”: Cc1ccc(C(=O)Nc2ccc(CN3CCN(C)CC3)c(C(F)(F)F)c2)cc1C#Cc1cnc2cccnn12 [Ponatinib] + O=C(c1cc(Cc2n[nH]c(=O)c3ccccc23)ccc1F)N1CCN(C(=O)C2CC2)CC1 [Olaparib] (partner 8 µM)
In a few lines:
(§1)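 Lung cancer cell lines were pin-tool dosed in 1536-well plates on the day after seeding, with either a lone drug or a fixed anchor-drug dose plus five library-drug doses (not always all listed) in √10 steps. Nuclei were counted on 4× images after 5 days. Relative viability is the ratio of treated-well to vehicle-well nuclei counts, with each value a median of duplicate plates.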

Compound in the test “Ponatinib + Trametinib”: Cc1ccc(C(=O)Nc2ccc(CN3CCN(C)CC3)c(C(F)(F)F)c2)cc1C#Cc1cnc2cccnn12 [Ponatinib] + CC(=O)Nc1cccc(-n2c(=O)n(C3CC3)c(=O)c3c(Nc4ccc(I)cc4F)n(C)c(=O)c(C)c32)c1 [Trametinib] (partner 0.02 µM)
In a few lines: as §1

Compound in the test “Pazopanib + Phenformin”: Cc1ccc(Nc2nccc(N(C)c3ccc4c(C)n(C)nc4c3)n2)cc1S(N)(=O)=O [Pazopanib] + N=C(N)NC(=N)NCCc1ccccc1 [Phenformin] (partner 250 µM)
The method in brief: as §1

Compound in the test “Ponatinib + Linsitinib”: Cc1ccc(C(=O)Nc2ccc(CN3CCN(C)CC3)c(C(F)(F)F)c2)cc1C#Cc1cnc2cccnn12 [Ponatinib] + C[C@]1(O)C[C@@H](c2nc(-c3ccc4ccc(-c5ccccc5)nc4c3)c3c(N)nccn32)C1 [Linsitinib] (partner 1 µM)
The method in brief: as §1

On to UMC-11, for which the relative viability is 0.405 in the test with Ponatinib + Olaparib (first compound 0.002 µM); 1.01 in the test with Ponatinib + Olaparib (first compound 0.006325 µM); 0.338 with Ponatinib + Olaparib (first compound 0.06325 µM); 0.366 with Ponatinib + Olaparib (first compound 0.2 µM); 0.648 in the test with Ponatinib + Trametinib (first compound 0.002 µM); 0.638 with Ponatinib + Trametinib (first compound 0.006325 µM). The relative viability with Ponatinib + Trametinib (first compound 0.06325 µM) was determined as 0.822; with Ponatinib + Trametinib (first compound 0.2 µM), 0.709; with Pazopanib + Phenformin (first compound 0.01 µM), 0.347; with Pazopanib + Phenformin (first compound 0.03162 µM) it was 0.339; with Pazopanib + Phenformin (first compound 0.1 µM), 0.361; with Pazopanib + Phenformin (first compound 0.3162 µM), 0.32. Moreover, the relative viability with Pazopanib + Phenformin (first compound 1 µM) worked out at 0.341; with Ponatinib + Linsitinib (first compound 0.002 µM), 1.02; in the test with Ponatinib + Linsitinib (first compound 0.006325 µM), 1.03; in the test with Ponatinib + Linsitinib (first compound 0.06325 µM) it was 1.16; with Ponatinib + Linsitinib (first compound 0.2 µM), 1.03.
